Patent US20250250230A1, “HETEROCYCLIC COMPOUND” (TAKEDA PHARMACEUTICAL COMPANY LIMITED, priority 2022, published 2025)

molecular target: T1, human orexin type 2 receptor (Homo sapiens, UniProt O43614); test: Measurement of orexin type 2 receptor agonist activity (calcium fluorescence, Fluo-4 AM, FDSS); type: cell-based; details: test compound 3 μM; CHO cells expressing human OX2 receptor; DMSO = 0%, orexin A (human) = 100%
T1 construct: expressed in transfected cells
T1 sequence (O43614 1-444): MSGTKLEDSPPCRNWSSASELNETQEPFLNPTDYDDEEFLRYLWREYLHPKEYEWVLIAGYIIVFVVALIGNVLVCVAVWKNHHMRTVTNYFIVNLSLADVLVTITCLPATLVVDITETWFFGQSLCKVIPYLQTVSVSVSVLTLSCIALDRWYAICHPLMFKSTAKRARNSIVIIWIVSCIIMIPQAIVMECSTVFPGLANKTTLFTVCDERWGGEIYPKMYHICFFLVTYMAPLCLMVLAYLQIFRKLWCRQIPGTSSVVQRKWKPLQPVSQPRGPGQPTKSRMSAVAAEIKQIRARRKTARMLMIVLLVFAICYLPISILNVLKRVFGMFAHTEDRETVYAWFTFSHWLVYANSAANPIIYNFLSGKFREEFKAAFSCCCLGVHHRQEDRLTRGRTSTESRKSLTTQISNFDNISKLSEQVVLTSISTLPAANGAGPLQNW
From the text: To obtain a cell clone stably expressing human orexin type 2 receptor, human orexin type 2 receptor cDNA was inserted into pcDNA3.1(+) plasmid vector (Invitrogen), and a plasmid DNA for expression of human orexin type 2 receptor (pcDNA3.1(+)/hOX2R) was cloned. The plasmid DNA was introduced into CHO-K1 cell by an electroporation method, and human orexin type 2 receptor expressing clone cells were obtained by limiting dilution method by using G418 drug resistance as a selection marker.
CHO cells forcibly expressing human OX2 receptor were seeded in each well of 384 well black transparent bottom plate (BD Falcon) at 10,000 cells/well, and cultured for one day in a 5% CO2 incubator at 37° C. After removal of the medium in the cell plate, assay buffer A containing a calcium indicator (HBSS (Thermo Fisher Scientific), 20 mM HEPES (Thermo Fisher Scientific), 0.1% BSA (Sigma-Aldrich), 2.5 μg/mL Fluo-4 AM (DOJINDO Chemical), 0.08% Pluronic F127 (DOJINDO Chemical), 1.25 mM probenecid (DOJINDO Chemical)) was added at 30 μL/well. The plate was stood for 30 min in a 5% CO2 incubator at 37° C., and further stood at room temperature for 30 min. A test compound prepared by diluting with assay buffer B (HBSS, 20 mM HEPES, 0.1% BSA) was added at 10 μL/well, and the fluorescence value was measured by FDSSμCELL (Hamamatsu Photonics K.K.) every one sec for 1 min, and thereafter every two sec for […]. The activity (%) of the test compound was calculated assuming that variation in the fluorescence value when DMSO was added instead of the test compound was 0%, and variation in the fluorescence value when orexin A (human) (PEPTIDE INSTITUTE, INC.) was added at the final concentration of 10 nM was 100%.

| OX2R agonist activity (3 μM, %) | Compound |
| --- | --- |
| 100% | CN(C)S(=O)(=O)NC1COCCN(C(=O)[C@@H]2C[C@H]2c2ccccc2-c2c(F)cccc2F)C1 (stereo partly drawn) [Example 295, N′-{(6S)-4-[(1R,2R)-2-(2′,6′-difluoro[1,1′-biphenyl]-2-yl)cyclopropane-1-carbonyl]-1,4-oxazepan-6-yl}-N,N-dimethylsulfuric diamide, or N′-{(6R)-4-[(1R,2R)-2-(2′,6′-difluoro[1,1′-biphenyl]-2-yl)cyclopropane-1-carbonyl]-1,4-oxazepan-6-yl}-N,N-dimethylsulfuric diamide] |
| 94% | CN(C)S(=O)(=O)NCC1CN(C(=O)[C@@H]2C[C@H]2c2ccccc2-c2c(F)cccc2F)CCO1 (stereo in doubt) [Example 284, N′-({(2R)-4-[(1R,2R)-2-(2′,6′-difluoro[1,1′-biphenyl]-2-yl)cyclopropane-1-carbonyl]morpholin-2-yl}methyl)-N,N-dimethylsulfuric diamide] |
| 107% | CS(=O)(=O)NC1CCCN(C(=O)C2CC2c2sccc2-c2c(F)cccc2F)CC1 (racemic) [Example 221, a mixture of rac-N-[(4R)-1-{(1R,2R)-2-[3-(2,6-difluorophenyl)thiophen-2-yl]cyclopropane-1-carbonyl}azepan-4-yl]methanesulfonamide and rac-N-[(4S)-1-{(1R,2R)-2-[3-(2,6-difluorophenyl)thiophen-2-yl]cyclopropane-1-carbonyl}azepan-4-yl]methanesulfonamide] |
| 101% | O=C(C1CC1c1ccccc1-c1c(F)cccc1F)N1CCC[C@H](NS(=O)(=O)CF)C1 (mixture of isomers) [Example 207, a mixture of N-{(3S)-1-[(1R,2R)-2-(2′,6′-difluoro[1,1′-biphenyl]-2-yl)cyclopropane-1-carbonyl]piperidin-3-yl}-1-fluoromethanesulfonamide and N-{(3S)-1-[(1S,2S)-2-(2′,6′-difluoro[1,1′-biphenyl]-2-yl)cyclopropane-1-carbonyl]piperidin-3-yl}-1-fluoromethanesulfonamide] |
| 68% | CC(NS(C)(=O)=O)C12CC(C1)N(C(=O)[C@@H]1C[C@@]1(F)c1ccccc1-c1c(F)cccc1F)C2 (stereo partly drawn) [Example 392, N-[(1R)-1-{2-[(1S,2S)-2-(2′,6′-difluoro[1,1′-biphenyl]-2-yl)-2-fluorocyclopropane-1-carbonyl]-2-azabicyclo[2.1.1]hexan-4-yl}ethyl]methanesulfonamide, or N-[(1S)-1-{2-[(1S,2S)-2-(2′,6′-difluoro[1,1′-biphenyl]-2-yl)-2-fluorocyclopropane-1-carbonyl]-2-azabicyclo[2.1.1]hexan-4-yl}ethyl]methanesulfonamide] |
| 94% | CS(=O)(=O)NC1CCC2CN(C(=O)[C@@H]3C[C@H]3c3ccccc3-c3c(F)cccc3F)CC21F (stereo partly drawn) [Example 340, N-{(3aR,4R,6aS)-2-[(1R,2R)-2-(2′,6′-difluoro[1,1′-biphenyl]-2-yl)cyclopropane-1-carbonyl]-3a-fluorooctahydrocyclopenta[c]pyrrol-4-yl}methanesulfonamide, or N-{(3aS,4S,6aR)-2-[(1R,2R)-2-(2′,6′-difluoro[1,1′-biphenyl]-2-yl)cyclopropane-1-carbonyl]-3a-fluorooctahydrocyclopenta[c]pyrrol-4-yl}methanesulfonamide] |
| 101% | CCS(=O)(=O)NC[C@@H]1[C@@H](F)CN1C(=O)[C@@H]1C[C@@]1(F)c1ccccc1-c1c(F)cccc1F [Example 414, N-({(2R,3S)-1-[(1S,2S)-2-(2′,6′-difluoro[1,1′-biphenyl]-2-yl)-2-fluorocyclopropane-1-carbonyl]-3-fluoroazetidin-2-yl}methyl)ethanesulfonamide] |
| 96% | CC1(C)C(C(=O)N2CC[C@H](NS(C)(=O)=O)C2)C1c1ccccc1-c1c(F)cccc1F (mixture of isomers) [Example 287, a mixture of N-{(3S)-1-[(1R,2R)-2-(2′,6′-difluoro[1,1′-biphenyl]-2-yl)-2,2-dimethylcyclopropane-1-carbonyl]pyrrolidin-3-yl}methanesulfonamide and N-{(3S)-1-[(1S,3S)-3-(2′,6′-difluoro[1,1′-biphenyl]-2-yl)-2,2-dimethylcyclopropane-1-carbonyl]pyrrolidin-3-yl}methanesulfonamide] |
| 100% | CNS(=O)(=O)NC[C@@H]1[C@H](F)CN1C(=O)[C@@H]1C[C@@]1(F)c1ccc(Cl)cc1-c1c(F)cccc1F [Example 443, N-({(2R,3R)-1-[(1S,2S)-2-(5-chloro-2′,6′-difluoro[1,1′-biphenyl]-2-yl)-2-fluorocyclopropane-1-carbonyl]-3-fluoroazetidin-2-yl}methyl)-N′-methylsulfuric diamide] |
| 101% | CC1C(NS(C)(=O)=O)CCN1C(=O)[C@@H]1C[C@H]1c1ccccc1-c1c(F)cccc1F (stereo partly drawn) [Example 297, N-{(2R,3R)-1-[(1R,2R)-2-(2′,6′-difluoro[1,1′-biphenyl]-2-yl)cyclopropane-1-carbonyl]-2-methylpyrrolidin-3-yl}methanesulfonamide, or N-{(2S,3S)-1-[(1R,2R)-2-(2′,6′-difluoro[1,1′-biphenyl]-2-yl)cyclopropane-1-carbonyl]-2-methylpyrrolidin-3-yl}methanesulfonamide] |
| 94% | CCS(=O)(=O)NCC1CCN1C(=O)C1CC1c1ccccc1-c1c(F)cccc1F (racemic) [Example 203, a mixture of rac-N-({(2R)-1-[(1R,2R)-2-(2′,6′-difluoro[1,1′-biphenyl]-2-yl)cyclopropane-1-carbonyl]azetidin-2-yl}methyl)ethanesulfonamide and rac-N-({(2S)-1-[(1R,2R)-2-(2′,6′-difluoro[1,1′-biphenyl]-2-yl)cyclopropane-1-carbonyl]azetidin-2-yl}methyl)ethanesulfonamide] |
| 96% | CNS(=O)(=O)N[C@H]1CCN(C(=O)[C@@H]2C[C@H]2c2ccccc2-c2c(F)cccc2F)C1 [Example 335, N-{(3S)-1-[(1R,2R)-2-(2′,6′-difluoro[1,1′-biphenyl]-2-yl)cyclopropane-1-carbonyl]pyrrolidin-3-yl}-N′-methylsulfuric diamide] |
| 99% | CS(=O)(=O)NC[C@H]1[C@H](CF)CN1C(=O)[C@@H]1C[C@@]1(F)c1ccccc1-c1c(F)cccc1F [Example 400, N-{[(2R,3R)-1-[(1S,2S)-2-(2′,6′-difluoro[1,1′-biphenyl]-2-yl)-2-fluorocyclopropane-1-carbonyl]-3-(fluoromethyl)azetidin-2-yl]methyl}methanesulfonamide] |
| 102% | CS(=O)(=O)NC1CCN(C(=O)C2CC2c2ccccc2-c2c(F)cccc2F)C1 (racemic) [Example 4, a mixture of rac-N-{(3R)-1-[(1R,2R)-2-(2′,6′-difluoro[1,1′-biphenyl]-2-yl)cyclopropane-1-carbonyl]pyrrolidin-3-yl}methanesulfonamide and rac-N-{(3S)-1-[(1R,2R)-2-(2′,6′-difluoro[1,1′-biphenyl]-2-yl)cyclopropane-1-carbonyl]pyrrolidin-3-yl}methanesulfonamide] |
| 52% | CS(=O)(=O)NC1CCCN(C(=O)C2CC2c2ccccc2-c2ncccc2F)CC1 (mixture of isomers) [Example 256, a mixture of N-[(4S)-1-{(1R,2R)-2-[2-(3-fluoropyridin-2-yl)phenyl]cyclopropane-1-carbonyl}azepan-4-yl]methanesulfonamide and N-[(4S)-1-{(1S,2S)-2-[2-(3-fluoropyridin-2-yl)phenyl]cyclopropane-1-carbonyl}azepan-4-yl]methanesulfonamide] |
| 105% | CS(=O)(=O)NC1COCCN(C(=O)[C@@H]2C[C@H]2c2ccccc2-c2c(F)cccc2F)C1 (stereo partly drawn) [Example 249, N-{(6R)-4-[(1R,2R)-2-(2′,6′-difluoro[1,1′-biphenyl]-2-yl)cyclopropane-1-carbonyl]-1,4-oxazepan-6-yl}methanesulfonamide, or N-{(6S)-4-[(1R,2R)-2-(2′,6′-difluoro[1,1′-biphenyl]-2-yl)cyclopropane-1-carbonyl]-1,4-oxazepan-6-yl}methanesulfonamide] |
